According to article PMC9060465 (Proceedings of the National Academy of Sciences of the …, 2022):

Experiments:
GLP-1R [1] = target: T1, GLP-1R (Homo sapiens, UniProt P43220); assay: β-arrestin 1 recruitment to the GLP-1R, NanoBRET; type: cell-based; set-up: expressed in transfected cells; conditions: efficacy (% Top), relative efficacy to GLP-1; (SEM)
Procedure: Functional potency (EC50) […]
and efficacy (% Top) of ligands to induce Gα s -GTPγS binding and cAMP accumulation in HEK293 cells expressing GIPR were determined. The equilibrium affinity (KD) of ligands for the immobilized ectodomain of the GIPR were quantified by surface plasmon resonance. Middle Panel: The affinity (Ki) of ligands for the GLP-1R was […]
(§1) Functional potency (EC50) and efficacy (% Top) of ligands to induce Gα s-GTPγS binding and cAMP accumulation in HEK293 cells expressing GLP-1R were determined. The equilibrium affinity (KD) of ligands for the immobilized ectodomain of the GLP-1R were quantified by surface plasmon resonance. […]
recruitment to the GLP-1R were determined using the NanoBRET approach. The potency (EC50) and efficacy (% Top) for ligands to induce GLP-1R Internalization were determined using diffusion-enhanced resonance energy transfer. […]
relative efficacy for NanoBRET assays. SPR data were analyzed using T200 evaluation software (Cytiva). All data are presented as geometric means with SEM and n values according to established practices. ND, not determined. NA, not applicable.
Target sequence in this assay (P43220 24-463): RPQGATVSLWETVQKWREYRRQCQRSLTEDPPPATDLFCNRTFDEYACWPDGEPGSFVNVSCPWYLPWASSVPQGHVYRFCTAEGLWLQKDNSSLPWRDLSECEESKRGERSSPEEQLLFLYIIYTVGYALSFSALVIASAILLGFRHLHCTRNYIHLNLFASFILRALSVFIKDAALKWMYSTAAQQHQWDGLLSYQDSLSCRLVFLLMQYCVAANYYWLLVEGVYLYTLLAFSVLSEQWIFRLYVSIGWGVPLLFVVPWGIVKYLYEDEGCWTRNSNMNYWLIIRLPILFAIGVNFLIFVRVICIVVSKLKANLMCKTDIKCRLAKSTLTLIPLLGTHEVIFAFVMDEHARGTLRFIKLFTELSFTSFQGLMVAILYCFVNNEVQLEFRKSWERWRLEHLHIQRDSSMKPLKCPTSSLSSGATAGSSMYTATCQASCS
Target sequence in this assay (P49407 whole entry partner): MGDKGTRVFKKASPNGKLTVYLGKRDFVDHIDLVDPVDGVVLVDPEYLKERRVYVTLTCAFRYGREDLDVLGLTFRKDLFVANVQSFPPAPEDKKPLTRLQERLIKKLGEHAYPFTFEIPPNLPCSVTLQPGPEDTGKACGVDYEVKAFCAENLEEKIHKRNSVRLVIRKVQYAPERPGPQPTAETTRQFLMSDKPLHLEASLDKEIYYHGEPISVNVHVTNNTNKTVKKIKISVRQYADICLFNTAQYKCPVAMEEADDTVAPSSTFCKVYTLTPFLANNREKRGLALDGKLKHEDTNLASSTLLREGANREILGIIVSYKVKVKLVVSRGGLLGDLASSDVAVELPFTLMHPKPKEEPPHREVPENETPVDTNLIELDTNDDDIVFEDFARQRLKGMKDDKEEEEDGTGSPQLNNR

human GIPR [2] = target: T2, human GIPR (Homo sapiens, UniProt P48546); assay: GIPR low density cAMP accumulation in HEK293 cells; type: cell-based
T2 construct: expressed in transfected cells; host or cells: HEK293
T2 sequence (P48546 22-466): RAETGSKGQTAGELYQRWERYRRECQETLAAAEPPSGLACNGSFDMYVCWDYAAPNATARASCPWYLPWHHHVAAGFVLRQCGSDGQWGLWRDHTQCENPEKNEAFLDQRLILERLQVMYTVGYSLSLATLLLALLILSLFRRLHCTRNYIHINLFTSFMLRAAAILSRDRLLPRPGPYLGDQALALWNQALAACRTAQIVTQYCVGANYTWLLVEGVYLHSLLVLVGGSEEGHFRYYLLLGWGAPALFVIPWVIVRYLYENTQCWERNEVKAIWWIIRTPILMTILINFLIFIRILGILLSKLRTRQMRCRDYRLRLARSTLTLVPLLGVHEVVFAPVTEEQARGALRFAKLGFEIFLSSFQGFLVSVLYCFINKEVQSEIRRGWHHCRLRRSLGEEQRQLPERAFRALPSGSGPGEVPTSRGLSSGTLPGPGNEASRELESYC
Procedure: (§2) Fig. 4. […] (B) Ligand-induced GTPγS binding of Gαs was performed using the GIPR-expressing membranes. […] (C) Agonist-stimulated cAMP production was measured in human GIPR expressing HEK293 cells. […] (E) Ligand-induced GTPγS binding of Gαs was performed using the GLP-1R-expressing membranes. […] (F) Agonist-stimulated cAMP production was measured in human GLP-1R-expressing HEK293 cells. […] Data presented are representative of n ≥ 3 independent experiments. Summarized data are shown in SI Appendix, Table 2. log M; log Molar.
(§3) We note that the albumin-binding propensity of fatty acid-modified peptides can confound a pharmacological comparison of molecules, given the common use of albumin and serum as nonspecific blocking agents in biological assays. Therefore, to obviate this, entirely albumin-free assays supplemented with bovine casein or bacitracin were used to prevent nonspecific binding ([10]).
(§4) Functional potency (EC50)
(§5) and efficacy (% Top) of ligands to induce Gα s -GTPγS binding and cAMP accumulation in HEK293 cells expressing GIPR were determined. The equilibrium affinity (KD) of
(§6) ligands for the immobilized ectodomain of the GIPR were quantified by surface plasmon resonance. […]
(§7) SPR data were analyzed using T200 evaluation software (Cytiva). All data are presented as geometric means with SEM and n values
(§8) according to established practices. ND, not determined. NA, not applicable.

GLP-1R [3] = target: T1, GLP-1R; assay: GRK2 recruitment to the GLP-1R, NanoBRET; type: cell-based; set-up: expressed in transfected cells; host or cells: freestyle HEK cells; conditions: efficacy (% Top), relative to maximal GLP-1; (SEM)
Procedure: After 48 h, transfected cells were incubated in phosphate-buffered saline (PBS) containing 0.1% (wt/vol) bovine casein and varying concentrations of the ligands. […]
The potency (EC50) and efficacy (% Top) for ligands to induce GLP-1R Internalization were
determined using diffusion-enhanced resonance energy transfer.
relative efficacy for NanoBRET assays. SPR data were analyzed using T200 evaluation software (Cytiva). All data are presented as geometric means with SEM and n values
as §8
Target sequence in this assay (P43220 24-463): as the sequence (P43220 24-463) above
Target sequence in this assay (P25098 whole entry partner): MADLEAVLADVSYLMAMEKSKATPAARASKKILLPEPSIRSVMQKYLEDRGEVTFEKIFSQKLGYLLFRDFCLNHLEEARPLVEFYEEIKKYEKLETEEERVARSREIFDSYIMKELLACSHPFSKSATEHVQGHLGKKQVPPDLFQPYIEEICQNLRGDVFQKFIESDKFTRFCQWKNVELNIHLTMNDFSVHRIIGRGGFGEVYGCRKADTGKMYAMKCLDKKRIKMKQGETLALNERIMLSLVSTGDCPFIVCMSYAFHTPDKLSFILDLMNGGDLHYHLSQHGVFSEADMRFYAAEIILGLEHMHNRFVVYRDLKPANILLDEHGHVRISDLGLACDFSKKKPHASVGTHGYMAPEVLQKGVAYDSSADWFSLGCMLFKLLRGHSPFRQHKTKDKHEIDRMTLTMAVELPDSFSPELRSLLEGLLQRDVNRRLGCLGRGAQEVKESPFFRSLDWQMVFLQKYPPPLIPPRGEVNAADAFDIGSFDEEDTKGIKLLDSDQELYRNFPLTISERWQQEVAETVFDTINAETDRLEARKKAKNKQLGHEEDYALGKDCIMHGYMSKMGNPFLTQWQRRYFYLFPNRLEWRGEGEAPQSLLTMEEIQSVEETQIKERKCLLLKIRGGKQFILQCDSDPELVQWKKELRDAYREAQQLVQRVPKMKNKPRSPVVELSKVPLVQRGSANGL

human GIPR [4] = target: T2, human GIPR; assay: GIPR Gαs [35S]GTPγS binding, GIPR-expressing membranes; type: biochemical; conditions: Gαs-GTPγS binding, GIPR-expressing membranes; albumin-free; geometric mean (SEM, n); read-out: GIPR GTPγS Recruitment EC50
Procedure: as §2, §3, §4, §5, §6, §7, §8

GLP-1R [5] = target: T1, GLP-1R; assay: GLP-1R low density cAMP accumulation in HEK293 cells; type: cell-based; set-up: expressed in transfected cells; host or cells: HEK293; conditions: efficacy (% Top), normalized to GLP-1(7-36); (SEM)
Procedure: as §2
as §3, with “([10]). […]” for “([10]).”
(§9) Middle Panel: The affinity (Ki) of ligands for the GLP-1R was […]
as §1
(§10) SPR data were analyzed using T200 evaluation software (Cytiva). All data are presented as geometric means with SEM and n values according to established practices. ND, not determined. NA, not applicable.
Target sequence in this assay (P43220 24-463): as the sequence (P43220 24-463) above

human GIPR [6] = target: T2, human GIPR; assay: [125I]GIP(1-42) competition binding, GIPR-expressing cell membranes; conditions: membranes of HEK293 cells expressing human GIPR, albumin-free, geometric mean (SEM, n)
From the text: as §3, §4, §5, §6, §7, §8

GLP-1R [7] = target: T1, GLP-1R; assay: Ligand-induced GLP-1R internalization, SNAP-GLP-1R HEK293 cells; type: cell-based; conditions: efficacy (% Top), percent internalization compared to maximal GLP-1; (SEM)
Target sequence in this assay (P43220 24-463): as above

GLP-1R [8] = target: T1, GLP-1R; assay: GLP-1R Gαs [35S]GTPγS binding, GLP-1R-expressing membranes; type: biochemical; set-up: expressed in transfected cells; host or cells: HEK293; conditions: efficacy (% Top), normalized to GLP-1(7-36); (SEM)
Procedure: as §2
as §3, with “([10]). […]” for “([10]).”
as §9, §1, §10
Target sequence in this assay (P43220 24-463): as above

GLP-1R β-Arr1 Recruitment Top (GLP-1R [1]): 35.3 (3.8) %
EC50 (human GIPR [2]; cAMP accumulation, HEK293 cells expressing GIPR, albumin-free, geometric mean (SEM, n)): > 4000 nM
GIPR Low Density cAMP Top (human GIPR [2]; efficacy (% Top), normalized to GIP(1-42), (SEM)): 39.4(9.5) %
GLP-1R GRK2 Recruitment Top (GLP-1R [3]): 54.5 (2.1) %
EC50 (human GIPR [4]): > 1000 nM
GLP-1R Low Density cAMP Top (GLP-1R [5]): 104 (4) %
Ki (human GIPR [6]): > 128 nM
GLP-1R Internalization Top (GLP-1R [7]): 73.1 (3.4) %
GLP-1R GTPγS Recruitment Top (GLP-1R [8]): 80.7 (2.2) %
Compound: CC[C@H](C)[C@H](NC(=O)[C@H](Cc1ccccc1)NC(=O)[C@H](CCC(=O)O)NC(=O)[C@H](CCCCN)NC(=O)[C@H](C)NC(=O)[C@H](C)NC(=O)[C@H](CCC(N)=O)NC(=O)CNC(=O)[C@H](CCC(=O)O)NC(=O)[C@H](CC(C)C)NC(=O)[C@H](Cc1ccc(O)cc1)NC(=O)[C@H](CO)NC(=O)[C@H](CO)NC(=O)[C@@H](NC(=O)[C@H](CC(=O)O)NC(=O)[C@H](CO)NC(=O)[C@@H](NC(=O)[C@H](Cc1ccccc1)NC(=O)[C@@H](NC(=O)CNC(=O)[C@H](CCC(=O)O)NC(=O)[C@H](C)NC(=O)[C@@H](N)Cc1ccc(O)cc1)[C@@H](C)O)[C@@H](C)O)C(C)C)C(=O)N[C@@H](C)C(=O)N[C@@H](Cc1c[nH]c2ccccc12)C(=O)N[C@@H](CC(C)C)C(=O)N[C@H](C(=O)N[C@@H](CCCCN)C(=O)NCC(=O)N[C@@H](CCCNC(=N)N)C(N)=O)C(C)C [GLP-1 H7Y, reference compound]
